Results on two compounds are retold here after US8084219B2, “Methods for detecting and analyzing N-glycolylneuraminic acid (Neu5Gc) in biological materials” (The Regents of the University of California, priority 2003, dated 2011).

Data set [1] deals with anti-Neu5Gc antibodies in human sera. Put plainly: Inhibition of human serum anti-Neu5Gc antibody ELISA reactivity to Neu5Gc-PAA. The class given is binding. The note with it: free sugar at 2 mM. On the procedure: Detection of Anti-Neu5Gc and anti-α-Gal specific antibodies in human sera—Microtiter (Costar, Corning, N.Y.) plate wells were coated with Neu5Ac-polyacrylamide(PAA), Neu5Gc-PAA, or Galα1-3GalBeta1-4GlcNAc-PAA (Glycotech, Rockville, Md.) at a concentration of 500 ng/well, in 50 mM sodium carbonate-bicarbonate buffer pH 9.5, at 4° C. overnight. After washing with TBS, pH 7.5 and blocking with TBST for 2 h at RT, triplicate wells were incubated with 1:50 dilutions of serum in TBST at RT for 4 h. Wells were washed 5 times with TBS, and incubated with HRP-conjugated mouse anti-human IgA (Calbiochem, San Diego, Calif.), anti-human IgG (Jackson ImmunoResearch, West Grove, Pa.) or anti-human IgM (KPL, Gaithersburg, Md.) each diluted in TBST at 1:20,000, at RT for 1.5 hour. The IgG anti-Neu5Gc and anti-α-Gal antibodies were quantitated using a standard curve of normal human IgG coated to the wells under the same general conditions.
Anti-Neu5Gc antibodies of the IgA, IgM and IgG classes were detected in the sera of all three subjects who ingested Neu5Gc at baseline, but no increases occurred after Neu5Gc ingestion (not shown). […] Specificity was confirmed by showing that anti-Neu5Gc reactivity was blocked by chimpanzee serum in a concentration-dependent manner, but not by equivalent amounts of a Neu5Gc antibody-negative human serum (FIG. 4B). […]
For orientation: In an ELISA, binding on a coated surface is turned into a signal by an enzyme label.

A short description of data set [2]: Human Neu5Gc ingestion study. The class given is in vivo. The protocol:
Human Neu5Gc Ingestion Study—Human subjects were enlisted in the study, and were told to avoid animal foods for 2 days, all medications for 1 day, use a lanolin-free (Neu5Gc-free) shampoo for 2 days, and ingest only fruit juice on the morning of study. Subjects then drank 150 mg of porcine submaxillary mucin Sias (see above) dissolved in 100 ml water. For the next 6 h they drank a 1:1 mixture of fruit juice and soymilk (Sia free) at ˜2 ml/Kg/hr. Serum, urine and saliva samples were obtained at multiple time points. Human saliva was collected by chewing parafilm, after washing the mouth out well with water. Urine volume and pH were recorded prior to centrifugation at 1000 g for 10 min, and collection of the supernatant. All samples were stored frozen at −20° C. Head hairs (˜20) and/or facial hair trimmings (from men) were collected prior to, and on several days after Neu5Gc ingestion.
Purification and analysis of Sialic Acids and N-acylmannosamines from Human Samples—Human salivary mucin was precipitated by adjusting to pH 3 with 100 mM acetic acid, stirring at 4° C. overnight, collected at 14,000 g for 10 min, and washed twice with 1 ml of ice-cold PBS. Human hair clippings were washed in 100 mM ice-cold acetic acid for two h and crushed in a clean ceramic mortar. Bound Sias from saliva, hair or serum were released with mild acid as above, filtered through Microcon 10 filters (Millipore, Bedford, Mass.), dried down, reconstituted in water and analyzed for Sia content by DMB-HPLC.
Five ml urine aliquots were diluted 5-fold and loaded onto 10 ml columns of AG50W-X2 resin (H^+ form, BioRad, Richmond, Calif.) equilibrated in water. The run-through and washes (2×10 ml of water) were pooled and loaded onto 10 ml columns of AG1X8 resin (Formate form, BioRad) equilibrated in water. The combined run-through and washes (2×10 ml of water) were lyophilized. After washing with 5 volumes of 10 mM formic acid, free Sias were eluted with 5 volumes of 1M formic acid, diluted two-fold with water, and lyophilized.
Free Sias were purified from urine samples, and analyzed for Neu5Gc content by DMB-HPLC. Since overlapping fluorescent peaks prevented definitive identification and quantification, HPLC fractions eluting at the time expected for DMB-Neu5Gc were collected and subjected to MS, confirming an increase in ion peaks at m/z 424 and m/z 442. The sum of ion intensities of m/z 424 and m/z 442 at each time point provided an estimate of Neu5Gc quantity. Ingested Neu5Gc was rapidly absorbed and excreted into the urine (FIG. 3A). About 3-6% of the ingested dose was excreted within 4-6 h, with the peak excretion rate at 2-3 h and a return to baseline levels within 24 h.

For another data set, the system named is human cells. Put plainly: Human cells fed with free Neu5Gc, incorporation into endogenous glycoproteins. Type of data set: cell-based. The source says:
It is therefore reasoned that the Neu5Gc in normal humans originates from exogenous sources. […] Likewise, human cells cultured in FCS incorporated Neu5Gc from the serum glycoproteins into the native glycoconjugates of the cells (Muchmore, E. A., Diaz, S, and Varki, A. (1998). Am J Phys Anthropol 107:187-198; and Tangvoranuntakul, et al., supra.

The next data set has as its system Caco-2 cells. Description: Feeding of human epithelial cells with Neu5Gc. Conditions: Caco-2, 3 mM Neu5Gc for 3 days, HPLC. Type of data set: cell-based. The protocol:
Feeding of Human Epithelial Cells with Neu5Gc—Caco-2 cells (human epithelial cells isolated from a primary colon carcinoma, ATCC, Manassas, Va.), were propagated in α-MEM (Gibco, Invitrogen Corporation, San Diego, Calif.) supplemented with 20% heat inactivated Fetal Calf Serum, at 37° C., 5% CO2. Prior to feeding, the cells were split and cultured for 4 days in α-MEM supplemented with 20% heat inactivated premium human serum type AB (Irvine scientific, Santa Ana, Calif.). Cells were then cultured in the presence of various concentrations of free Neu5Gc (0, 0.3, 1 and 3 mM, respectively) for 3 days at 37° C. Cells were then washed with cold PBS, scraped into 20 mM sodium phosphate pH 7.5 and sonicated. The protein extract was quantified and analysed by Western blot using the anti-Neu5Gc antibody.
Although human cells cultured in fetal calf serum express cell surface Neu5Gc in small amounts (Muchmore, et al., supra, and Oetke, et al., supra), this could represent either metabolic incorporation or non-specific absorption. Human epithelial cells were cultured in human serum until no traces of Neu5Gc derived from fetal calf serum could be detected by HPLC (typically ˜4 days). Culture was then continued for 3 days in the absence or presence of varying amounts of free Neu5Gc. […]

On to `CC(=O)N[C@H]1[C@H]([C@H](O)[C@H](O)CO)OC(O)(C(=O)O)C[C@@H]1O` (some centres unmarked) [Neu5Ac, N-acetylneuraminic acid, reference compound], for which the “inhibition of anti-Neu5Gc reactivity of human sera” value in data set [1] was “not”.
As to `O=C(CO)N[C@H]1[C@H]([C@H](O)[C@H](O)CO)OC(O)(C(=O)O)C[C@@H]1O` (some centres unmarked) [Neu5Gc, N-glycolylneuraminic acid], in data set [2] (2 days after ingestion, MS), the “subjects with increase of Neu5Gc in salivary mucins” value is 2 of 3. In data set [2] (after ingestion), the “time of decline of salivary mucin Neu5Gc to baseline levels” value is on record as at most 4 days. Also, the “Neu5Gc in serum samples” value in data set [2] (any time points after ingestion) is given as “not detected”. For the same compound, in data set [2] (oral 150 mg), the “time of peak urinary excretion rate” value was in the range of 2 to 3 h and the “time of return of urinary excretion to baseline levels” value is on record as at most 24 h. In addition, in data set [2] (oral 150 mg, human subjects), the “reactions to Neu5Gc ingestion” value is “no immediate reactions”. The “share of the ingested dose excreted into the urine” value in data set [2] (within 4-6 h after oral 150 mg porcine submaxillary mucin Sias, MS estimate) is listed as 3-6%. Besides, the “level of Neu5Gc incorporated into endogenous glycoproteins” value in the data set on human cells is above 50%. Besides, in data set [1], the “inhibition of anti-Neu5Gc reactivity of human sera” value is reported as above 70%. Besides, the “highest level of incorporation of Neu5Gc into the cells, of total Sia” value in the data set with Caco-2 cells was determined as 85%.
